Measured values as given in US7115574B2, “System and method for support legacy operating system booting in a legacy-free system” (priority 2001, dated 2006).
Non-standard residues stand in square brackets, D forms with d. No end group written: not given here.

Key:
[1] = tested on: edema caused by intradermal injection of recombinant human IL-1β in the mouse ear; assay: IL-1β-induced ear edema with centrally administered α-MSH and receptor antagonists; assay type: in vivo, BALB/c mice
Protocol: See Macaluso, A., McCoy, D., Ceriani, G., Watanabe, T., Biltz, J., Catania, A., and Lipton, J. M., Anti-inflammatory Influences of a-MSH Molecules: Central Neurogenic and Peripheral Actions, 14(4), J. of Neuroscience 2377-2382 (1994). Female BALB/c mice (Simonsen Laboratories, Gilroy, Calif.), 7-8 weeks old, were housed at 23-25° C. in groups not exceeding five animals per cage [28 cm (L)×18 cm (W)×13 cm (H)]. Before the experiments they were acclimatized for not less than 1 week before experimentation to standard lighting and temperature conditions with food and water freely available.
Mice were anesthetized with 10% pentobarbital sodium solution (1 mg/mouse, 50 mg/ml, Nembutal sodium solution; Abbott Laboratories, North Chicago, Ill.). Baseline ear thickness measurements were taken with a spring-loaded micrometer (Swiss Precision Instruments, Los Angeles, Calif.). Ear thickness was expressed in centimeters and was measured at least twice at each time point. The average thickness of unstimulated ears was […]. Inflammation was induced by injecting 20 μl of recombinant human IL-1β (1500 U; Genzyme, Cambridge, Mass.) directly into the skin (intradermally) of one ear of each mouse using a 28 gauge needle (Hiltz et al., 1992). Measures of ear thickness were repeated 4 and 6 hr later, while the mice were under sodium pentobarbital anesthesia.
Several agents were administered at the time of ear challenge to pharmacologically block certain receptors: atropine (Sigma Chemical Co.; 150 μg i.p.), a muscarinic receptor blocker that acts on autonomic end-organ receptors, was chosen because of links between inflammation and modulation of pain and the finding that muscarinic antagonists increase pain threshold (Hartvig et al., 1989); phentolamine (Sigma; 150 μg i.p.) an agent that competes for occupancy of α-adrenergic receptors; propranolol (Sigma; 150 μg, i.p.; 30 μg, i.c.v.), a nonspecific competitive antagonist for β-adrenergic receptors.
Because of the size of the experiments and the requirement for several shipments of animals over time, several experiments were performed, each with complete treatment and control groups drawn from the same shipment of mice. Omnibus analysis of variance techniques (Dynastat, Washington, D.C.) were used to test overall differences among group means. Tukey's protected t test was used to compare individual means. Probability values of <0.05 were considered significant.

[2] = tested on: carrageenan-induced swelling in rat paws; assay: Rat paw edema test (carrageenan); assay type: in vivo, Sprague-Dawley rats; conditions: 100 mg/kg intraperitoneal, rats
Protocol: A second in vivo bioassay for anti-inflammatory activity was conducted in which the action of the tripeptide (SEQ ID NO: 1) was compared to that of hydrocortisone. In this assay, the two agents were given at similar doses and tested for their independent ability to inhibit carrageenan-induced swelling in rat paws. This assay, the rat paw edema test, was conducted generally as it is typically performed in the art, for example, as described by Winter et al. (1962), Proc. Soc. Exp. Biol. Med., 111:544 or in U.S. Pat. No. 4,150,137.
Briefly, the assay was performed as follows. Each of twenty-four male Sprague-Dawley rats was assigned to one of four groups: Tripeptide treatment and controls (matched according to body weight and initial paw volume), hydrocortisone treatment and matched controls. The volume of the right rear paw of the test and control animals was determined using standard procedures and a mercury displacement volumetric technique. […] One hour later 0.5 ml of 1% lambda carrageenan in saline solution was injected into the right rear paw of the animals and the paw volume was again recorded (baseline measure). For comparison of the effects of the two treatments, paw volume of experimental animals measured at hourly intervals was expressed as a percentage of the volume change of their respective matched controls.

[3] = tested on: C. albicans; assay: C. albicans colony forming units (candidacidal activity); assay type: cell-based; conditions: for relative potency in reducing C. albicans viability: FIG. 2, 10^−4M melanocortin peptides
Protocol: C. albicans (clinical isolate) was obtained from the collection of the Department of Microbiology, Ospedale Maggiore di Milano and maintained on Sabouraud's agar slants and periodically transferred to Sabouraud's agar plates and incubated for 48 hours at 28° C. To prepare a stationary growth phase yeast, a colony was taken from the agar plate and transferred into 30 ml Sabouraud-dextrose broth and incubated for 72 hours at 32° C. Cells were centrifuged and suspended in Hank's balanced salt solution (“HBSS”) to the desired concentration. Viability, determined by the exclusion of 0.01% methylene blue, remained >98%.
C. albicans (1×10^6/ml in HBSS) was incubated in the presence or absence or α-MSH(1-13) (SEQ ID NO: 3) or (11-13) (SEQ ID NO: 1) at concentrations in the range of 10^−15 M to 10^−6 M for 2 hours at 37° C. Cells were then washed in cold distilled water and diluted with HBSS to a concentration of 100 organisms/ml. One-ml aliquots were dispensed on blood agar plates and incubated for 48 hours at 37° C. Organism viability was estimated from the number of colonies formed.
In subsequent experiments using familiar procedures we compared activity of α-MSH(4-10) (SEQ ID NO: 10), (6-13) (SEQ ID NO: 2), (11-13) (SEQ ID NO: 1), ACTH(1-39) (SEQ ID NO: 9), (18-39) (SEQ ID NO: 11) and fluconazole, the latter an established antifungal agent. Melanocortin peptides and fluconazole were tested in concentrations of 10^−6 M to 10^−4 M. There were at least six replicates for each concentration of peptide. […]

[4] = tested on: inflammation induced in the ear by picryl chloride application; assay: Picryl chloride-induced ear swelling; assay type: in vivo, BALB/C mice; conditions: for % Inhibition 3 h: 3 h after picryl chloride; for % Inhibition 6 h: 6 h after picryl chloride; for overall effect on inflammation (ANOVA): 10-80 μg IP, 3 and 6 h
Protocol: Hiltz, M. E., Catania, A., Lipton, J. M., Anti-Inflammatory Activity of aα-MSH (11-13) Analogs: Influence of Alteration in Stereochemistry, 12 Peptides 767 (1981). […] Female BALB/C mice (Simonsen Laboratories), 7 weeks old, were housed at 23-25° C. in groups of no more than 5 per cage [28 cm (L)×18 cm (W)×13 cm (H)]. They were allowed to acclimatize to standard lighting and temperature conditions for at least 1 week, with food and water available ad lib, before the experiment began. Five to ten animals were randomly assigned to each treatment group each test day, and all experiments were repeated at least twice to confirm reproducibility. To reduce error due to slight differences in responses to the irritant of animals from different shipments, tests of each agent were performed as separate experiments in which experimental and control animals were drawn from the same shipment.
In the experiments each animal was anesthetized with 1 mg of pentobarbital sodium solution ([…], Nembutal, Abbott Laboratories, Abbott park, Ill.). Baseline ear thickness was measured for both ears with a spring-loaded micrometer (Swiss Precision Instruments, Los Angeles, Calif.). Ear thickness was expressed in units of 10^−3 cm; the average thickness of unstimulated ears was approximately 25-30×10^−3 cm. After baseline measurements were taken, one of six solutions was injected IP. […] The doses of the tripeptides were 10 μg (2.6×.10^−8 M), 20 μg (5.2×.10^−8 M), 40 μg (1.04×.10^−7 M), and 80 μg (2.08×.10^−7 M). Immediately after saline or α-MSH injection, a micropipette was used to coat both sides of each ear with 10 μl […] of a 0.5% picryl chloride (Polysciences, Warrington, Pa.) solution in acetone.
Ear thickness was remeasured 3 and 6 h after picryl chloride application. Swelling was determined by subtracting baseline thickness from the measurements for each ear at 3 and 6 h. The differences for both ears were then averaged for the final analysis.
Repeated-measure ANOVA techniques were used to determine if there was an overall difference among group data for each peptide tested in separate experiments. In those cases in which the ANOVA yielded significant results, Dunnett's test was then used to compare the effects of peptide doses with control (saline) data for each of the two time periods, 3 and 6 h.

[5] = antagonist administered intraperitoneally

Row | Molecule | effect of antagonist on the anti-inflammatory influence of centrally administered α-MSH(1-13) [1, 5] | % Inhibition 3 h ([4]; 10 μg IP) | % Inhibition 6 h ([4]; 10 μg IP) | % Inhibition 3 h ([4]; 20 μg IP) | % Inhibition 6 h ([4]; 20 μg IP) | % Inhibition 3 h ([4]; 40 μg IP) | % Inhibition 6 h ([4]; 40 μg IP) | % Inhibition 3 h ([4]; 80 μg IP) | % Inhibition 6 h ([4]; 80 μg IP) | overall effect on inflammation (ANOVA) [4] | other results
1 | CC(C)NCC(O)COc1ccc(CC(N)=O)cc1 (stereo not drawn) [atenolol] | little inhibition |  |  |  |  |  |  |  |  |  | 
2 | CN1[C@@H]2CC[C@H]1C[C@@H](OC(=O)C(CO)c1ccccc1)C2 (stereo partly drawn) [atropine] | did not alter |  |  |  |  |  |  |  |  |  | 
3 | COc1ccc(OC)c(C(O)C(C)NC(C)(C)C)c1 (stereo not drawn) [butoxamine] | significantly reduced |  |  |  |  |  |  |  |  |  | 
4 | C[C@]12CCC(=O)C=C1CC[C@@H]1[C@@H]2[C@@H](O)C[C@@]2(C)[C@H]1CC[C@]2(O)C(=O)CO [hydrocortisone, reference compound] |  |  |  |  |  |  |  |  |  |  | anti-inflammatory activity (inhibition of paw edema) ([2]; between 1 and 4 hours): nearly identical anti-inflammatory activity; decrease in paw inflammation ([2]; first hour after carrageenan injection): ~30%
5 | Cc1ccc(N(CC2=NCCN2)c2cccc(O)c2)cc1 [phentolamine] | did not alter |  |  |  |  |  |  |  |  |  | 
6 | CC(C)NCC(O)COc1cccc2ccccc12 (stereo not drawn) [propranolol] | inhibited |  |  |  |  |  |  |  |  |  | effect of antagonist on the anti-inflammatory influence of centrally administered α-MSH(1-13) ([1]; antagonist injected centrally): little effect
7 | ACTH(1-39): adrenocortitrophic hormone (ACTH) peptide 1-39 (SYSMEHFRWGKPVGKKRRPVKVYPAGEDDEASEAFPLEF; listed as Homo sapiens) [reference compound] |  |  |  |  |  |  |  |  |  |  | relative potency in reducing C. albicans viability [3]: did not reduce
8 | ACTH(18-39): ACTH fragment (18-39) (CLIP) (RPVKVYPAGEDDEASEAFPLEF; Designed polypeptide with anti-inflammatory, anti-microbial, anti-fungal, and anti-viral properties.) [reference compound] |  |  |  |  |  |  |  |  |  |  | relative potency in reducing C. albicans viability [3]: did not reduce
9 | Ac-[D-Lys^11, D-Val^13]α-MSH(11-13)-NH2 (Ac-[dK]-Pro-[dV]-NH2; SMILES CC(=O)N[C@H](CCCCN)C(=O)N1CCC[C@H]1C(=O)N[C@@H](C(N)=O)C(C)C) |  | 22% | 22% | 55% | 46% | 42% | 41% | 40% | 44% | significant overall reduction in inflammation | 
10 | Ac-[D-Lys^11]α-MSH(11-13)-NH2 (Ac-[dK]-Pro-Val-NH2; SMILES CC(=O)N[C@H](CCCCN)C(=O)N1CCC[C@H]1C(=O)N[C@H](C(N)=O)C(C)C) |  | 23% | 17% | 25% | 16% | 35% | 37% | 34% | 29% | significantly reduced inflammation | 
11 | Ac-[D-Pro^12]α-MSH(11-13)-NH2 (Ac-Lys-[dP]-Val-NH2; SMILES CC(=O)N[C@@H](CCCCN)C(=O)N1CCC[C@@H]1C(=O)N[C@H](C(N)=O)C(C)C) |  | 4% | 8% | 11% | 5% | 10% | 8% | 8% | 6% | no significant effect on inflammation | 
12 | Ac-[D-Val^13]α-MSH(11-13)-NH2 (Ac-Lys-Pro-[dV]-NH2; SMILES CC(=O)N[C@@H](CCCCN)C(=O)N1CCC[C@H]1C(=O)N[C@@H](C(N)=O)C(C)C) [Ac-[D-Pro^13]α-MSH(11-13)-NH2] |  | 24% | 23% | 48% | 54% | 39% | 45% | 41% | 29% | marked inhibitory influence | 
13 | VPK-Ac-CC-Ac-KPV (Ac-CKPV; also: disulfide dimer via Cys) |  |  |  |  |  |  |  |  |  |  | effectiveness against microbes relative to α-MSH(11-13) [3]: at least as effective as α-MSH(11-13); C. albicans colony forming units (CFU) ([3]; FIG. 1, incubation 2 hours at 37° C.): inhibited
